Laboratory results taken from PubChem BioAssay AID1963836 (Molecular Pharmacology Branch, DTP, NCI, 2024).

System: 857933-349-R-J2-PDC complex spheroid viability
Assay: Anticancer human tumor 857933-349-R-J2-PDC patient-derived colon adenocarcinoma cell line growth inhibition [POLQ]
Conditions: for IC50: curve of first compound; for viability, T/C: stronger effect = lower value
In short: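 Three-cell-type spheroids modelling solid tumor plus stroma served as the readout system; POL inhibitors were tested individually and in combination, concentration ranges set by clinical Cmax where known.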

[1] = second compound 0.0316 µM, first compound 0.0316 µM
[2] = second compound 0.0316 µM, first compound 0.1 µM
[3] = second compound 0.0316 µM, first compound 0.316 µM
[4] = second compound 0.0316 µM, first compound 1 µM
[5] = second compound 0.0316 µM, first compound 3.16 µM
[6] = second compound 0.0316 µM, first compound 10 µM
[7] = second compound 0.1 µM, first compound 0.0316 µM
[8] = second compound 0.1 µM, first compound 0.1 µM
[9] = second compound 0.1 µM, first compound 0.316 µM
[10] = second compound 0.1 µM, first compound 1 µM
[11] = second compound 0.1 µM, first compound 3.16 µM
[12] = second compound 0.1 µM, first compound 10 µM
[13] = second compound 0.316 µM, first compound 0.0316 µM
[14] = second compound 0.316 µM, first compound 0.1 µM
[15] = second compound 0.316 µM, first compound 0.316 µM
[16] = second compound 0.316 µM, first compound 1 µM
[17] = second compound 0.316 µM, first compound 3.16 µM
[18] = second compound 0.316 µM, first compound 10 µM
[19] = second compound 1 µM, first compound 0.0316 µM
[20] = second compound 1 µM, first compound 0.1 µM
[21] = second compound 1 µM, first compound 0.316 µM
[22] = second compound 1 µM, first compound 1 µM
[23] = second compound 1 µM, first compound 3.16 µM
[24] = second compound 1 µM, first compound 10 µM
[25] = second compound 3.16 µM, first compound 0.0316 µM
[26] = second compound 3.16 µM, first compound 0.1 µM
[27] = second compound 3.16 µM, first compound 0.316 µM
[28] = second compound 3.16 µM, first compound 1 µM
[29] = second compound 3.16 µM, first compound 3.16 µM
[30] = second compound 3.16 µM, first compound 10 µM
[31] = second compound 10 µM, first compound 0.0316 µM
[32] = second compound 10 µM, first compound 0.1 µM
[33] = second compound 10 µM, first compound 0.316 µM
[34] = second compound 10 µM, first compound 1 µM
[35] = second compound 10 µM, first compound 3.16 µM
[36] = second compound 10 µM, first compound 10 µM
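Also: spheroids exposed to compounds for seven days before readout.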

## COc1cc(C2c3cc4c(cc3C(OC3OC5COC(C)OC5C(O)C3O)C3COC(=O)C23)OCO4)cc(OC)c1O (stereo unspecified) + COC1C(OC(N)=O)C(O)C(Oc2ccc3c(O)c(NC(=O)c4ccc(O)c(CC=C(C)C)c4)c(=O)oc3c2C)OC1(C)C
Second compound 0.0316 µM
  IC50: 0.352 µM
Second compound 0.1 µM
  IC50: 0.399 µM
Second compound 0.316 µM
  IC50: 0.488 µM
Second compound 1 µM
  IC50: 0.453 µM
Second compound 3.16 µM
  IC50: 0.358 µM
Second compound 10 µM
  IC50: 0.386 µM
[1]
  viability, T/C: 80.7%
[2]
  viability, T/C: 88.3%
[3]
  viability, T/C: 51.3%
[4]
  viability, T/C: 46.2%
[5]
  viability, T/C: 36.1%
[6]
  viability, T/C: 28.7%
[7]
  viability, T/C: 71.1%
[8]
  viability, T/C: 84.7%
[9]
  viability, T/C: 53.5%
[10]
  viability, T/C: 42.3%
[11]
  viability, T/C: 35.5%
[12]
  viability, T/C: 30.4%
[13]
  viability, T/C: 74.1%
[14]
  viability, T/C: 79.3%
[15]
  viability, T/C: 54.6%
[16]
  viability, T/C: 41%
[17]
  viability, T/C: 34.7%
[18]
  viability, T/C: 29.9%
[19]
  viability, T/C: 81.9%
[20]
  viability, T/C: 71.3%
[21]
  viability, T/C: 54.6%
[22]
  viability, T/C: 39.6%
[23]
  viability, T/C: 34.2%
[24]
  viability, T/C: 29.9%
[25]
  viability, T/C: 88.2%
[26]
  viability, T/C: 99%
[27]
  viability, T/C: 52.1%
[28]
  viability, T/C: 37.5%
[29]
  viability, T/C: 30.3%
[30]
  viability, T/C: 30.1%
[31]
  viability, T/C: 94.5%
[32]
  viability, T/C: 65.7%
[33]
  viability, T/C: 54.6%
[34]
  viability, T/C: 39.8%
[35]
  viability, T/C: 37.6%
[36]
  viability, T/C: 32.1%

## COc1ccc([C@@H](O)c2cc(-c3ncnc4cc(N5CCOCC5)ccc34)c(F)cc2Cl)nn1 + COC1C(OC(N)=O)C(O)C(Oc2ccc3c(O)c(NC(=O)c4ccc(O)c(CC=C(C)C)c4)c(=O)oc3c2C)OC1(C)C
Second compound 0.0316 µM
  IC50: > 10 µM
Second compound 0.1 µM
  IC50: > 10 µM
Second compound 0.316 µM
  IC50: > 10 µM
Second compound 1 µM
  IC50: > 10 µM
Second compound 3.16 µM
  IC50: > 10 µM
Second compound 10 µM
  IC50: > 10 µM
[1]
  viability, T/C: 114%
[2]
  viability, T/C: 102%
[3]
  viability, T/C: 123%
[4]
  viability, T/C: 96.2%
[5]
  viability, T/C: 91.4%
[6]
  viability, T/C: 65.3%
[7]
  viability, T/C: 91.5%
[8]
  viability, T/C: 123%
[9]
  viability, T/C: 87%
[10]
  viability, T/C: 98.7%
[11]
  viability, T/C: 72%
[12]
  viability, T/C: 94.3%
[13]
  viability, T/C: 112%
[14]
  viability, T/C: 102%
[15]
  viability, T/C: 84.5%
[16]
  viability, T/C: 89.2%
[17]
  viability, T/C: 76.1%
[18]
  viability, T/C: 61.1%
[19]
  viability, T/C: 100%
[20]
  viability, T/C: 93.4%
[21]
  viability, T/C: 106%
[22]
  viability, T/C: 79.5%
[23]
  viability, T/C: 89.8%
[24]
  viability, T/C: 65.7%
[25]
  viability, T/C: 89.4%
[26]
  viability, T/C: 118%
[27]
  viability, T/C: 101%
[28]
  viability, T/C: 94.3%
[29]
  viability, T/C: 77.5%
[30]
  viability, T/C: 63.8%
[31]
  viability, T/C: 101%
[32]
  viability, T/C: 93.5%
[33]
  viability, T/C: 107%
[34]
  viability, T/C: 69.5%
[35]
  viability, T/C: 76.4%
[36]
  viability, T/C: 72.3%

## O=C(Nc1ccc(O)c(NS(=O)(=O)c2ccc(F)cc2)c1)c1ccc(-c2ccccc2)cc1 + Nc1ccc(C#CCN(C(=O)Cc2ncc(C(F)(F)F)cc2C(F)(F)F)c2ccc(F)cc2)nn1
Second compound 0.0316 µM
  IC50: > 10 µM
Second compound 0.1 µM
  IC50: > 10 µM
Second compound 0.316 µM
  IC50: > 10 µM
Second compound 1 µM
  IC50: > 10 µM
Second compound 3.16 µM
  IC50: > 10 µM
Second compound 10 µM
  IC50: > 10 µM
[1]
  viability, T/C: 95.1%
[2]
  viability, T/C: 108%
[3]
  viability, T/C: 103%
[4]
  viability, T/C: 111%
[5]
  viability, T/C: 110%
[6]
  viability, T/C: 92%
[7]
  viability, T/C: 90.1%
[8]
  viability, T/C: 96.6%
[9]
  viability, T/C: 97%
[10]
  viability, T/C: 103%
[11]
  viability, T/C: 119%
[12]
  viability, T/C: 103%
[13]
  viability, T/C: 84.2%
[14]
  viability, T/C: 98.8%
[15]
  viability, T/C: 91.2%
[16]
  viability, T/C: 102%
[17]
  viability, T/C: 110%
[18]
  viability, T/C: 98.8%
[19]
  viability, T/C: 90.7%
[20]
  viability, T/C: 106%
[21]
  viability, T/C: 101%
[22]
  viability, T/C: 97.9%
[23]
  viability, T/C: 89.7%
[24]
  viability, T/C: 94.2%
[25]
  viability, T/C: 97%
[26]
  viability, T/C: 96.2%
[27]
  viability, T/C: 104%
[28]
  viability, T/C: 85.1%
[29]
  viability, T/C: 104%
[30]
  viability, T/C: 99.7%
[31]
  viability, T/C: 103%
[32]
  viability, T/C: 105%
[33]
  viability, T/C: 98.6%
[34]
  viability, T/C: 107%
[35]
  viability, T/C: 90.8%
[36]
  viability, T/C: 113%
